One data set has as its system neutrophils. Kind of data set: O2^- production stimulating activity in neutrophils. In kind it is cell-based, C3H/HeN mice. The conditions noted are these: 10 μg/ml, 37° C., 60 minutes, FMLP 0.1 μM; for activation at 10 µg/mL: Mus musculus, Neutrophil, 1 h, read-out: Stimulation (%), O2^- production stimulating activity. Here is the method: O2^- - production stimulating activity in neutrophils was evaluated utilizing the following experimental system [see J. Exp. Med., 160, 1656-1671. (1984)]. To the peritoneal cavity of C3H/HeN mice (male, 8-9 weeks old), physiological saline containing 0.2% (w/v) casein was administered. Three hours later, peritoneal exudate cells (90% or more of which are neutrophils) were collected. These cells (1.7×10^6 cells/ml/tube) were incubated in the presence of the compound (10 μg/ml) according to the present invention at 37° C. for 60 minutes. After addition of 80 μM of cytochrome C and 0.1 μM of formyl-methionyl-leucylphenylalanine (FMLP), the mixture was incubated in the presence of or in the absence of superoxide dismutase (SOD) at 37° C. for 10 minutes. Then, SOD-inhibitable cytochrome C reduction was estimated from the difference between the absorbances at 550 nm and 541.7 nm, and from the molar absorption coefficient (16.5×10^3).O2^- production-stimulating activity in terms of Stimulation % was calculated according to the following formula: [formula]

Another data set concerns TNF. As to the kind of experiment: TNF-producing activity. The class given is in vivo, ICR mice. The conditions noted are these: 10 μg/mice i.v., serum at 90 minutes, Corynebacterium parvum-primed, L929 cytotoxicity assay. The method, then:
TNF-producing activity was evaluated utilizing the following experimental system.
The first stimulating agent, 5% Corynebacterium parvum suspension (0.2 ml physiological saline solution), was intravenously administered to ICR mice (female, 6-7 week-aged). Nine days later, the second stimulating agent, the compound of the present invention, was intravenously administered to the same mice at 10 μg/mice. In 90 minutes, 0.5-1 ml of blood was taken from the retro orbital plexus. The obtained blood was allowed to clot at room temperature for five to six hours, and centrifuged at 7200×g for five minutes to separate the serum. The obtained serum was incubated at 56° C. for 30 minutes for inactivation before use in the following experiment.
TNF activity in the serum was measured via a cytotoxicity assay employing L929 cells. […] After 48 hours incubation at 37° C., the viable cells were fixed with methanol. These cells were then stained with 0.2% crystal violet, and the dye was extracted with 1% SDS (sodium dodecyl sulphate). Next, the absorbance at 550 nm was measured. Finally, the cytotoxicity ratio (%) was calculated according to the following formula, and the reciprocal of the dilution of the serum showing 50% cytotoxicity was determined for the TNF titer in the serum (U/ml).
[OD550 (medium alone) - OD550 (serum obtained by
administering compounds of the invention)] ×

The test system of the next data set is spleen cells. Kind of data set: Mitogen activity (3H-thymidine incorporation in spleen cells). The conditions noted are these: 48 hours culture, given concentration. In kind it is cell-based, C3H/HeN mice. The method, then:
The mitogen activity of the compounds according to the present invention was evaluated by utilizing the following experimental system [see Eur. J. Immunol., 14, 109-114. (1984)].
The spleens of C3H/HeN mice (males, 6-10-weeks old) were isolated in an aseptic manner. The spleen tissue was loosened in Dulbecco's modified Eagle medium (DMEM) and then subjected to a stainless mesh in order to filter the spleen cells. Next, erythrocytes contained in the collected cells were hemolyzed, and the obtained cells were suspended in RPMI 1640 medium containing 5% FBS for subsequent use.
Evaluation of mitogenic activity of the compounds according to the present invention was conducted by measuring the amount of ^3 H-thymidine incorporated into the cells during culturing of the cells which were treated with the compounds according to the present invention. First, the spleen cells were transferred to a 96-well plate at 5×10^5 cells/well (100 μl). To each well, the compound according to the present invention at a given concentration (100 μl) was added, and the obtained solution in each well was cultured under 5% CO2 at 37° C. for 48 hours. After that, ^3 H-thymidine was added at 1 μCi/well (50 μl), followed by culturing for four hours. The obtained cells were washed with phosphate buffered saline (PBS), and the amount of ^3 H-thymidine incorporated into the cells (the amount of radioactivity) was determined using a liquid scintillation counter. The result was shown by calculating the following Stimulation Index: [formula]
Background: Uptake of a labelled nucleoside into DNA is a usual measure of proliferation.

In data set [1] the test system is colony stimulating factor (CSF). As to the kind of experiment: Colony stimulating factor (CSF)-inducing activity. In kind it is in vivo, C57BL mice. The following applies: 5 μg caudal vein, serum after six hours, colonies after seven days. Here is the method: By utilizing the following experimental protocol, in vivo colony stimulating factor (CSF) inducing activity of the compounds according to the present invention was evaluated [see Immunology, 21, 427-436. (1971)].
5 μg of the present compounds according to the present invention were administered to the caudal vein of C57BL mice (male, 8-10-weeks old). After six hours, the blood was sampled from the plexus venous orbitalis of said mice. This blood was allowed to stand at 4° C. for two hours for sufficient coagulation, and then centrifuged at 1500×g. The resultant supernatant solution was collected for use as a CSF-containing serum sample.
Separately, from the femora of mice which were the same series as the mice used for sampling the serum, the bone marrow cells were sampled. Specifically, both ends of the femora isolated in an aseptic manner were cut, and an injection needle was inserted into one end to aspirate the bone marrow cells into a culture solution (DMEM). The obtained cell suspension was sufficiently stirred, washed with the culture solution several times, and suspended in the culture solution again.
Next, the cell culture prepared as described was adjusted to a final concentration of 10^5 cells/ml by utilizing a medium (DMEM) containing 0.3% agar, 25% horse serum, and 50 μM 2-mercaptoethanol. To this solution, 0.1 ml of said serum sample which had been diluted to 1/3 with said DMEM medium was added, and the obtained solution was transferred to a culture plate of 35 mm diameter. Then, the resultant culture solution was cultured under 7% CO2 at 37° C. for seven days to form colonies. Colonies as containing at least 20 unseparated cells were counted, and the numbers thus obtained were taken as indicating the CSF inducing activity of the compounds according to the present invention.

Data set [2] is described as follows: Lethal toxicity in galactosamine-sensitized mice. The following applies: galactosamine-sensitized mice; intravenous; D-galactosamine/HCl 10 mg/mouse intraperitoneally; observed to seventh day; read-out: LD50 (galactosamine load). The class given is in vivo, C57BL mice. The method, then: (§1) Lethal toxicity in galactosamine-sensitized mice was evaluated by utilizing the following experimental system [see J. Biochem., 98, 395-406. (1985)].
(§2) To C57BL mice (male, 7-weeks old), 10 mg/mouse of D-galactosamine/HCl was intraperitoneally administered. Immediately after that, the compound of this invention was intravenously administered. After these administrations, the general condition of the mice were observed every one hour for seven hours, and every day from the following day to the seventh day.

Data set [3] concerns galactosamine-sensitized mice. As to the kind of experiment: Lethal toxicity in galactosamine-sensitized mice. In kind it is in vivo, C57BL mice. The conditions noted are these: intravenous; D-galactosamine/HCl 10 mg/mouse intraperitoneally; observed to seventh day; 10080 min. The method, then: as §1, §2

The structures appear in SMILES notation. Where two headings read alike, the source gives them in different places.

These results are taken from patent US5278300A, “4,6-o-hydroxyphosphoryl-glucosamine derivatives” (priority 1990, dated 1994).

By LD50 is commonly meant the dose at which mortality reaches 50%. Take `CCCCCCCCCCCCCC(=O)O[C@H](CCCCCCCCCCC)CC(=O)O[C@H]1[C@H](OP(=O)(O)O)[C@@H](CO)OC(O)[C@@H]1NC(=O)C[C@H](O)CCCCCCCCCCC` (stereo partly drawn) [Control, 2-deoxy-2[(3R)-3-hydroxytetradecanamide]-4-O-phosphono-3-O-[(3R)-3-tetradecanoyloxytetradecanoyl]-D-glucopyranose]: the “Stimulation (%), O2^- production stimulating activity” value in the data set with neutrophils (Experiment 2) is listed as 60%. For the same compound, the activation at 10 µg/mL in the data set on neutrophils (Experiment 1) was 60%. Moreover, the “The Amount of TNF in the Serum” value with TNF (Experiment 1) came to 158000 U/ml; in the data set with TNF (Experiment 2), 80000 U/ml. Moreover, the “Stimulation Index” value in the data set with spleen cells (Experiment 1) worked out at 15.8; in the data set on spleen cells (Experiment 2), 8.4. Further, the “The Number of Colony Formed/The number of Bone Marrow Cells (10^5)” value is given as 89 Colony Formed/10^5 Bone Marrow in data set [1] (Experiment 1) and 53 Colony Formed/10^5 Bone Marrow in data set [1] (Experiment 2). Also, the LD50 at 168 h in data set [2] is 0.003 mg/kg.
For `CCCCCCCCCCCCCC(=O)O[C@H](CCCCCCCCCCCC)C(=O)O[C@H]1[C@@H]2OP(=O)(O)OC[C@H]2OC[C@@H]1NC(=O)C[C@H](O)CCCCCCCCCCC` [Example 1, 1,5-Anhydro-2-deoxy-4,6-O-hydroxyphosphoryl-2-{(3R)-3-hydroxytetradecanamido}-3-O-{(2R)-2-tetradecanoyloxytetradecanoyl}-D-glucitol], in the data set with neutrophils (Experiment 1), the activation at 10 µg/mL worked out at 55%. For the same compound, the “The Amount of TNF in the Serum” value in the data set on TNF (Experiment 1) worked out at 133000 U/ml. Besides, the “Stimulation Index” value in the data set with spleen cells (Experiment 1) is recorded as 32.1. The “The Number of Colony Formed/The number of Bone Marrow Cells (10^5)” value in data set [1] (Experiment 1) is reported as 153 Colony Formed/10^5 Bone Marrow. In addition, the LD50 at 168 h in data set [2] worked out at 0.0313 mg/kg.
In the case of `CCCCCCCCCCCCCCC(OC(=O)CCCCCCCCCCC)C(=O)O[C@H]1[C@@H]2OP(=O)(O)OC[C@H]2OC[C@@H]1NC(=O)C[C@H](O)CCCCCCCCC` (stereo partly drawn) [Example 2, 1,5-Anhydro-2-deoxy-3-O-{(2RS)-2-dodecanoyloxyhexadecanoyl}-2-{(3R)-3-hydroxydodecanamido}-4,6-O-hydroxyphosphoryl-D-glucitol], the “The Amount of TNF in the Serum” value in the data set with TNF (Experiment 2) came to 102000 U/ml.
As for `CCCCCCCCCCCCCCC(CCCCCCCCCCCC)C(=O)O[C@H]1[C@@H]2OP(=O)(O)OC[C@H]2OC[C@@H]1NC(=O)C[C@H](O)CCCCCCCCCCC` (stereo partly drawn) [Example 4, 1,5-Anhydro-2-deoxy-3-O-{(2RS)-2-dodecylhexadecanoyl}-4,6-O-hydroxyphosphoryl-2-{(3R)-3-hydroxytetradecanamido}-D-glucitol], the activation at 10 µg/mL in the data set with neutrophils (Experiment 2) is 55%. Moreover, in the data set with spleen cells (Experiment 2), the “Stimulation Index” value came to 20.7. The “The Number of Colony Formed/The number of Bone Marrow Cells (10^5)” value in data set [1] (Experiment 2) is recorded as 66 Colony Formed/10^5 Bone Marrow. Also, the LD50 at 168 h in data set [2] came out at 0.0711 mg/kg.
For the compound `CCCCCCCCCCCCCC(=O)O[C@H](CCCCCCCCCCC)CC(=O)O[C@@H]1[C@@H](NC(=O)C[C@@H](CCCCCCCCCCC)OC(=O)CCCCCCCCCCC)[C@H](OC[C@H]2O[C@H](OP(=O)(O)O)[C@H](NC(=O)C[C@H](O)CCCCCCCCCCC)[C@@H](OC(=O)C[C@H](O)CCCCCCCCCCC)[C@@H]2O)O[C@H](CO)[C@H]1OP(=O)(O)O` [Lipid A], the “LD50 (galactosamine load)” value in data set [3] worked out at 0.0003 mg/kg.
